From patent publication US12357711B2, “PSMA binding dual mode radiotracer and therapeutic” (Technische Universität München, priority 2019, dated 2025)

Tested on: SCID mice
Experiment: Preclinical dosimetry from biodistribution in mice, extrapolated to 70-kg Standard Adult (OLINDA/EXM 1.0)
Type: in vivo
Conditions: […] bladder voiding interval
Procedure: 3-5 mice were injected per timepoint with a mean 25.6±3.6 MBq of 18F-rhPSMA-7 and 28.5±4.8 MBq of 18F-rhPSMA-7.3, respectively. Mice, severe combined immunodeficiency (SCID) were used for the experiments.
Mice were sacrificed at the following timepoints: • ^18F-rhPSMA-7: 10, 20, 40, 60, 120 and 180 minutes after administration. • ^18F-rhPSMA-7.3: 10, 60, 120, 180 and 300 minutes after administration.
Urine, blood, heart, lung, spleen, pancreas, liver, stomach (emptied), small intestine (emptied), large intestine (emptied), kidneys, bladder, testis, fat, muscle (partial, femoral), femur, tail and brain. Urine was collected with a pipette in the CO2 gas chamber. In case of missing urination in the chamber the bladder was aspirated with an insulin syringe. Blood was withdrawn instantly after sacrifice with an insulin syringe from the heart. All other tissues and organs were dissected and transferred directly in plastic containers.
The counting rates of measurement samples were automatically corrected for decay. The radioactivity distribution ratios (unit: percentage of the injected dose (% ID) in the measurement samples were determined using the equation below. The sum of the counting rates from all measurement samples obtained from one mouse was designated as the counting rate for administrated radioactivity.
The radioactivity distribution ratio per unit weight of the measurement sample (unit: % ID/g) excluding urine and feces samples was determined by using the equation below. The weight of the measurement sample was determined by subtraction of the empty measurement container from the container including the sample.
For consistency of statistical calculations for each radiotracer the same number of time-points for ^18F-rhPSMA-7 and ^18F-rhPSMA-7.3 was used. Therefore, for ^18F-rhPSMA-7 the 10 min and 20 min time points were combined creating a 15 min endpoint.
The time-integral of activity for the accumulation in the significant source organs (AUCs) were generated both with numerical integration and physical decay according to J Juan et al., Journal of Pharmaceutical Sciences, 1993, 82:762-763.
In brief, to calculate a human dosimetry from the biodistribution in the mice, an extrapolation was necessary to account for the differences between the animals and humans. Normal-organ radiation doses were estimated for the 70-kg Standard Adult anatomic model using time-depending organ activity concentrations (in percent of the injected dose per gram, % ID/g) and total-body activities measured in the biodistribution studies in mice.
Tissue activity concentrations in mice were converted to tissue fractional activities in the 70-kg Standard Adult using the relative fractional organ masses in the Standard Adult and the “standard” 25-gramm mouse. Time-dependent total-body activity was fit to an exponential function and the difference between the injected activity and the total-body activity was assumed to be excreted to the urine because activity concentrations in the liver and GI tracer were low at all time points studied.
Organ residence time was calculated by numerical integration using the trapezoidal rule and the rest-of-body ^18F residence times was calculated as the difference between the total-body residence time and the sum of the organ and urine residence times. The bladder contents residence time was estimated using the dynamic voiding model in the OLINDA/EXM 1.0 dosimetry software. Finally, the Standard Adult mean organ dose equivalents (in mSv/MBq) and effective dose (also in mSv/MBq) were then calculated using OLIN DA/EXM 1.0.
Final calculation of radiation absorbed dose and dosimetry from biodistribution in mice: The tissues or organs in which a significant accumulation of radioactivity occurs (i.e., source organ) were kidney, spleen, lung, liver and heart. With respect to activity accumulation and clearance, a rapid clearance from blood and clearance to urine but relatively slow build-up in kidney was found.

CC(C)(C)[Si](F)(c1ccc(C(=O)NC[C@@H](NC(=O)CC[C@@H](C(=O)O)N2CCN(CC(=O)[O-])CCN(CC(=O)[O-])CCN(CC(=O)[O-])CC2)C(=O)N[C@H](CCCCNC(=O)CCC(=O)NCCC[C@@H](NC(=O)CC[C@H](NC(=O)N[C@@H](CCC(=O)O)C(=O)O)C(=O)O)C(=O)O)C(=O)O)cc1)C(C)(C)C.[Ga+3] [rhPSMA7.3, [^19F][^natGa]D-Dap-S-DOTAGA-rhPSMA7]
Adrenals ED Cont.: 5.52E−05 mSv/MBq
Adrenals EDE Cont.: 0.00E000 mSv/MBq
Adrenals dose Alpha: 0.00E000 mSv/MBq
Adrenals dose Beta: 3.12E−03 mSv/MBq
Adrenals dose Photon: 7.93E−03 mSv/MBq
Adrenals dose Total: 1.10E−02 mSv/MBq
Brain ED Cont.: 3.59E−05 mSv/MBq
Brain EDE Cont.: 0.00E000 mSv/MBq
Brain dose Alpha: 0.00E000 mSv/MBq
Brain dose Beta: 3.12E−03 mSv/MBq
Brain dose Photon: 4.07E−03 mSv/MBq
Brain dose Total: 7.19E−03 mSv/MBq
Breasts ED Cont.: 3.34E−04 mSv/MBq
Breasts EDE Cont.: 1.00E−03 mSv/MBq
Breasts dose Alpha: 0.00E000 mSv/MBq
Breasts dose Beta: 3.12E−03 mSv/MBq
Breasts dose Photon: 3.55E−03 mSv/MBq
Breasts dose Total: 6.67E−03 mSv/MBq
Gallbladder Wall ED Cont.: 0.00E000 mSv/MBq
Gallbladder Wall EDE Cont.: 0.00E000 mSv/MBq
Gallbladder Wall dose Alpha: 0.00E000 mSv/MBq
Gallbladder Wall dose Beta: 3.12E−03 mSv/MBq
Gallbladder Wall dose Photon: 7.46E−03 mSv/MBq
Gallbladder Wall dose Total: 1.06E−02 mSv/MBq
Heart Wall ED Cont.: 0.00E000 mSv/MBq
Heart Wall EDE Cont.: 0.00E000 mSv/MBq
Heart Wall dose Alpha: 0.00E000 mSv/MBq
Heart Wall dose Beta: 1.32E−03 mSv/MBq
Heart Wall dose Photon: 5.39E−03 mSv/MBq
Heart Wall dose Total: 6.71E−03 mSv/MBq
Kidneys ED Cont.: 3.59E−04 mSv/MBq
Kidneys EDE Cont.: 4.31E−03 mSv/MBq
Kidneys dose Alpha: 0.00E000 mSv/MBq
Kidneys dose Beta: 5.11E−02 mSv/MBq
Kidneys dose Photon: 2.07E−02 mSv/MBq
Kidneys dose Total: 7.18E−02 mSv/MBq
LLI Wall ED Cont.: 1.91E−03 mSv/MBq
LLI Wall EDE Cont.: 9.53E−04 mSv/MBq
LLI Wall dose Alpha: 0.00E000 mSv/MBq
LLI Wall dose Beta: 3.12E−03 mSv/MBq
LLI Wall dose Photon: 1.28E−02 mSv/MBq
LLI Wall dose Total: 1.59E−02 mSv/MBq
Liver ED Cont.: 3.00E−04 mSv/MBq
Liver EDE Cont.: 0.00E000 mSv/MBq
Liver dose Alpha: 0.00E000 mSv/MBq
Liver dose Beta: 9.70E−04 mSv/MBq
Liver dose Photon: 5.02E−03 mSv/MBq
Liver dose Total: 5.99E−03 mSv/MBq
Lungs ED Cont.: 7.93E−04 mSv/MBq
Lungs EDE Cont.: 7.93E−04 mSv/MBq
Lungs dose Alpha: 0.00E000 mSv/MBq
Lungs dose Beta: 1.95E−03 mSv/MBq
Lungs dose Photon: 4.66E−03 mSv/MBq
Lungs dose Total: 6.61E−03 mSv/MBq
Muscle ED Cont.: 4.83E−05 mSv/MBq
Muscle EDE Cont.: 0.00E000 mSv/MBq
Muscle dose Alpha: 0.00E000 mSv/MBq
Muscle dose Beta: 3.12E−03 mSv/MBq
Muscle dose Photon: 6.55E−03 mSv/MBq
Muscle dose Total: 9.67E−03 mSv/MBq
Osteogenic Cells ED Cont.: 1.32E−04 mSv/MBq
Osteogenic Cells EDE Cont.: 3.97E−04 mSv/MBq
Osteogenic Cells dose Alpha: 0.00E000 mSv/MBq
Osteogenic Cells dose Beta: 6.70E−03 mSv/MBq
Osteogenic Cells dose Photon: 6.52E−03 mSv/MBq
Osteogenic Cells dose Total: 1.32E−02 mSv/MBq
Ovaries ED Cont.: 3.14E−03 mSv/MBq
Ovaries EDE Cont.: 3.92E−03 mSv/MBq
Ovaries dose Alpha: 0.00E000 mSv/MBq
Ovaries dose Beta: 3.12E−03 mSv/MBq
Ovaries dose Photon: 1.26E−02 mSv/MBq
Ovaries dose Total: 1.57E−02 mSv/MBq
Pancreas ED Cont.: 5.70E−05 mSv/MBq
Pancreas EDE Cont.: 0.00E000 mSv/MBq
Pancreas dose Alpha: 0.00E000 mSv/MBq
Pancreas dose Beta: 3.12E−03 mSv/MBq
Pancreas dose Photon: 8.29E−03 mSv/MBq
Pancreas dose Total: 1.14E−02 mSv/MBq
Red Marrow ED Cont.: 1.08E−03 mSv/MBq
Red Marrow EDE Cont.: 1.08E−03 mSv/MBq
Red Marrow dose Alpha: 0.00E000 mSv/MBq
Red Marrow dose Beta: 2.22E−03 mSv/MBq
Red Marrow dose Photon: 6.79E−03 mSv/MBq
Red Marrow dose Total: 9.01E−03 mSv/MBq
Skin ED Cont.: 6.95E−05 mSv/MBq
Skin EDE Cont.: 0.00E000 mSv/MBq
Skin dose Alpha: 0.00E000 mSv/MBq
Skin dose Beta: 3.12E−03 mSv/MBq
Skin dose Photon: 3.83E−03 mSv/MBq
Skin dose Total: 6.95E−03 mSv/MBq
Small Intestine ED Cont.: 6.27E−05 mSv/MBq
Small Intestine EDE Cont.: 0.00E000 mSv/MBq
Small Intestine dose Alpha: 0.00E000 mSv/MBq
Small Intestine dose Beta: 3.12E−03 mSv/MBq
Small Intestine dose Photon: 9.42E−03 mSv/MBq
Small Intestine dose Total: 1.25E−02 mSv/MBq
Spleen ED Cont.: 1.34E−04 mSv/MBq
Spleen EDE Cont.: 1.60E−03 mSv/MBq
Spleen dose Alpha: 0.00E000 mSv/MBq
Spleen dose Beta: 1.52E−02 mSv/MBq
Spleen dose Photon: 1.15E−02 mSv/MBq
Spleen dose Total: 2.67E−02 mSv/MBq
Stomach Wall ED Cont.: 1.22E−03 mSv/MBq
Stomach Wall EDE Cont.: 0.00E000 mSv/MBq
Stomach Wall dose Alpha: 0.00E000 mSv/MBq
Stomach Wall dose Beta: 3.12E−03 mSv/MBq
Stomach Wall dose Photon: 7.02E−03 mSv/MBq
Stomach Wall dose Total: 1.01E−02 mSv/MBq
Testes ED Cont.: 0.00E000 mSv/MBq
Testes EDE Cont.: 0.00E000 mSv/MBq
Testes dose Alpha: 0.00E000 mSv/MBq
Testes dose Beta: 3.12E−03 mSv/MBq
Testes dose Photon: 8.96E−03 mSv/MBq
Testes dose Total: 1.21E−02 mSv/MBq
Thymus ED Cont.: 4.10E−05 mSv/MBq
Thymus EDE Cont.: 0.00E000 mSv/MBq
Thymus dose Alpha: 0.00E000 mSv/MBq
Thymus dose Beta: 3.12E−03 mSv/MBq
Thymus dose Photon: 5.08E−03 mSv/MBq
Thymus dose Total: 8.20E−03 mSv/MBq
Thyroid ED Cont.: 4.14E−04 mSv/MBq
Thyroid EDE Cont.: 2.48E−04 mSv/MBq
Thyroid dose Alpha: 0.00E000 mSv/MBq
Thyroid dose Beta: 3.12E−03 mSv/MBq
Thyroid dose Photon: 5.15E−03 mSv/MBq
Thyroid dose Total: 8.27E−03 mSv/MBq
Total Body ED Cont.: 0.00E000 mSv/MBq
Total Body EDE Cont.: 0.00E000 mSv/MBq
Total Body dose Alpha: 0.00E000 mSv/MBq
Total Body dose Beta: 3.52E−03 mSv/MBq
Total Body dose Photon: 6.33E−03 mSv/MBq
Total Body dose Total: 9.86E−03 mSv/MBq
ULI Wall ED Cont.: 5.85E−05 mSv/MBq
ULI Wall EDE Cont.: 0.00E000 mSv/MBq
ULI Wall dose Alpha: 0.00E000 mSv/MBq
ULI Wall dose Beta: 3.12E−03 mSv/MBq
ULI Wall dose Photon: 8.57E−03 mSv/MBq
ULI Wall dose Total: 1.17E−02 mSv/MBq
Urinary Bladder Wall ED Cont.: 1.14E−02 mSv/MBq
Urinary Bladder Wall EDE Cont.: 1.36E−02 mSv/MBq
Urinary Bladder Wall dose Alpha: 0.00E000 mSv/MBq
Urinary Bladder Wall dose Beta: 1.56E−01 mSv/MBq
Urinary Bladder Wall dose Photon: 7.14E−02 mSv/MBq
Urinary Bladder Wall dose Total: 2.27E−01 mSv/MBq
Uterus ED Cont.: 1.18E−04 mSv/MBq
Uterus EDE Cont.: 1.41E−03 mSv/MBq
Uterus dose Alpha: 0.00E000 mSv/MBq
Uterus dose Beta: 3.12E−03 mSv/MBq
Uterus dose Photon: 2.04E−02 mSv/MBq
Uterus dose Total: 2.36E−02 mSv/MBq
